Laboratory results taken from US9187458B2, “Cyanoquinoline derivatives” (Tianjin Hemay Bio-Tech Co., LTD., priority 2010, dated 2015).

Assays:
BT-474 cells = assay: BT-474 Cell Growth Inhibition Test (SRB Assay); format: cell-based, human; details: 70 h incubation; for IC50 / inhibition at 1 µM: Homo sapiens; for Growth Inhibition Ratio (%) / inhibition at 1 µM: compound 1 μM; for inhibition at 1 µM: BT-474, 70 h, read-out: Growth Inhibition Ratio (%)
In short: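 Human breast tumour BT-474 cells (1×10^5/ml seeding, overnight) exposed to compound 70 h at 37 °C, 5% CO2; TCA-fixed, SRB-stained, dye dissolved in 10 mM Tris and OD read at 570 nm. Inhibition ratio = (PC−n)/(PC−NC)×100%; IC50 is the concentration giving 50% inhibition, from fitted curves.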

LoVo cells = assay: LoVo Cell Growth Inhibition Test (MTT Assay); format: cell-based; details: Homo sapiens, 72 h incubation
Method: LoVo Cell Growth Inhibition Test (MTT Assay)
1. Cell strains: LoVo (human intestinal cancer cell strains);
1. A plate (10 cm) of cells in logarithmic growth phase normally cultured was collected;
2. The culture solution was sucked out. The plate was washed with 5 ml of PBS 1-2 times;
3. PBS was sucked out. 2 ml of 0.25% pancreatin was added to infiltrate the cells for 1 min;
4. The pancreatin was sucked out. The culture plate was placed in an incubator. Digestion was carried out for about 4 min at 37° C.;
5. 4 ml of complete culture solution was added in the culture plate to stop the digestion. The cells were carefully scoured with micropipette (1 ml) to give a uniform cell suspension. The suspension was implanted into a 96-well cell culture plate by 3000-4000 cells/100 μl per well. The culture plate was incubated overnight under 5% CO2 at 37° C. In day 2, 100 μl of culture solution comprising a compound was added into each well, and further incubated for 72 h under 5% CO2 at 37° C.
6. The culture solution was sucked out;
7. 100 μl of serum-free culture solution containing 0.5 mg/ml MTT was added in each well, and incubated for 4 h;
8. The culture solution was carefully sucked out;
9. 100 μl of DMSO was added in each well and vibrated to dissolve;
10. OD values were determined at 490 nM.
1. Calculation of Relative Inhibition Ratio The inhibition ratio of a compound on cell growth=(PC−n)/(PC−NC)×100%
IC50: Concentration of a compound where inhibition ratio was 50%. IC50 values were fitted with Origin7.5.

Sk-Br-3 cells = assay: Sk-Br-3 Cell Growth Inhibition Test (SRB Assay); format: cell-based; details: Homo sapiens, 91 h incubation
Method: Sk-Br-3 Cell Growth Inhibition Test (SRB Assay)
1. Cell strains: Sk-Br-3 (human breast cancer cell strains);
2. SRB: available from Sigmaaldrich, goods number: S9012, lot number: 047K3751. SRB was reserved at the room temperature. 0.4% (w/v) of working solution was formulated with 1% of glacial acetic acid. The solution was reserved at 4° C.; anti-tumor compounds; DMSO
Culture medium: 90% DMEM+10% FBS;
1. A plate (10 cm) of cells in logarithmic growth phase normally cultured was collected. The culture solution was sucked out. The plate was washed with 5 mL of PBS 1-2 times;
2. PBS was sucked out. […] of 0.25% pancreatin was added to infiltrate the cells for 30 s;
3. The pancreatin was sucked out. The culture plate was placed in an incubator. Digestion was carried out for about 1.5-2 min at 37° C.;
4. 4 mL of complete culture solution was added to the culture plate to stop the digestion. The cells were carefully scoured with micropipette (1 ml) to give a uniform single cell suspension;
5. Cell suspension was counted. The suspension was diluted to 1×10^5/ml. The resulting suspension was developed uniformly on a plate by 10000 cells/100 μl per well. The culture plate was incubated overnight under 5% CO2 at 37° C. In day 2, 100 μl of culture solution comprising a compound was added in each well, and further incubated for 91 h under 5% CO2 at 37° C.
6. The culture solution was sucked out. 100 uL of TCA fixed cells which were diluted to 10% were added to each well. The plate was kept in a refrigerator for 1 h at 4° C.
7. TCA stationary liquid was sucked out. Each well was washed with 150 μL of ddH2O five times;
8. After the stationary liquid was cleansed, the plate was dried in the air at the room temperature;
9. 60 μL of SRB staining solution was added in each well. The well was stained for 15 min at the room temperature;
10. The SRB staining solution was sucked out. Each well was washed with 150 μL of 1% glacial acetic acid five times;
11. After the SRB staining solution was cleansed, the plate was dried in the air at the room temperature;
12. 100 μL of 10 mM Tris was added in each well. The plate was vibrated to dissolve out SRB;
13. OD values were determined at 570 nM.
To: OD values of the starting content of cells when the cells were developed on a plate;
PC: OD values of cells after normal growth in control wells without a compound;
Ti: OD values of cells after growth in test wells with a compound;
NC: Background OD values of blank well without a compound and cells
Therefore: Ratio of cells in test wells to normal wells (% of control cell growth)=(Ti−To)/(PC−To)×100%
Ratio GI50 was concentration of a compound at the point of 50%.
Therefore: Ratio of killed cells to inoculated cells (% of killed cells)=(Ti−To)/(To−NC)×100%
LC50 was concentration point of a compound when half of the starting inoculated concentration was reached.
Concentration of a compound at this point is defined as TGI (total growth inhibition).

Structure (SMILES)	IC50 (BT-474 cells) [nM]	Growth Inhibition Ratio (%) (BT-474 cells)	IC50 (LoVo cells) [nM]	GI50 (Sk-Br-3 cells) [nM]	inhibition at 1 µM (BT-474 cells) [%]
CN(C)C/C=C/C(=O)Nc1cc2c(Nc3ccc(F)c(Cl)c3)c(C#N)cnc2cc1OC1CCOC1 (stereo not drawn) [Example 4, (E)-N-(4-(3-CHLORO-4-FLUOROPHENYLAMINO)-3-CYANO-7-(TETRAHYDROFURAN-3-YL-OXY)QUINOLIN-6-YL)-4-(DIMETHYLAMINO)-BUT-2-ENAMIDE]	140	79	8000	148	–
C#Cc1cccc(Nc2c(C#N)cnc3cc(OC4CCOC4)c(NC(=O)/C=C/CN(C)C)cc23)c1 (stereo not drawn) [Example 5, (E)-N-(3-CYANO-4-(3-ETHYNYLPHENYLAMINO)-7-(TETRAHYDROFURAN-3-YL-OXY)QUINOLIN-6-YL)-4-(DIMETHYLAMINO)-BUT-2-ENAMIDE]	41	85	8570	24	–
CN(C)C/C=C/C(=O)Nc1cc2c(Nc3cccc(Br)c3)c(C#N)cnc2cc1OC1CCOC1 (stereo not drawn) [Example 7, (E)-N-(4-(3-BROMOPHENYLAMINO)-3-CYANO-7-(TETRAHYDROFURAN-3-YL-OXY)QUINOLIN-6-YL)-4-(DIMETHYLAMINO)-BUT-2-ENAMIDE]	309	–	7000	213	–
CN(C)C/C=C/C(=O)Nc1cc2c(Nc3ccc(OCc4ccccc4F)c(Cl)c3)c(C#N)cnc2cc1OC1CCOC1 (stereo not drawn) [Example 8, (E)-N-(4-(4-(2-FLUOROBENZYLOXY)-3-CHLOROPHENYLAMINO)-3-CYANO-7-(TETRAHYDROFURAN-3-YL-OXY)QUINOLIN-6-YL)-4-(DIMETHYLAMINO)-BUT-2-ENAMIDE]	–	–	1700	–	79
CN(C)C/C=C/C(=O)Nc1cc2c(Nc3ccc(OCc4cccc(F)c4)c(Cl)c3)c(C#N)cnc2cc1OC1CCOC1 (stereo not drawn) [Example 9, (E)-N-(4-(4-(3-FLUOROBENZYLOXY)-3-CHLOROPHENYLAMINO)-3-CYANO-7-(TETRAHYDROFURAN-3-YL-OXY)QUINOLIN-6-YL)-4-(DIMETHYLAMINO)-BUT-2-ENAMIDE]	5.2	78	1580	15	–
CN(C)C/C=C/C(=O)Nc1cc2c(Nc3ccc(OCc4ccccc4Cl)c(Cl)c3)c(C#N)cnc2cc1OC1CCOC1 (stereo not drawn) [Example 10, (E)-N-(4-(4-(2-CHLOROBENZYLOXY)-3-CHLOROPHENYLAMINO)-3-CYANO-7-(TETRAHYDROFURAN-3-YL-OXY)QUINOLIN-6-YL)-4-(DIMETHYLAMINO)-BUT-2-ENAMIDE]	9.9	–	2000	6	–
CN(C)C/C=C/C(=O)Nc1cc2c(Nc3ccc(OCc4cccc(Cl)c4)c(Cl)c3)c(C#N)cnc2cc1OC1CCOC1 (stereo not drawn) [Example 11, (E)-N-(4-(4-(3-CHLOROBENZYLOXY)-3-CHLOROPHENYLAMINO)-3-CYANO-7-(TETRAHYDROFURAN-3-YL-OXY)QUINOLIN-6-YL)-4-(DIMETHYLAMINO)-BUT-2-ENAMIDE]	7.9	–	1600	–	–
CN(C)C/C=C/C(=O)Nc1cc2c(Nc3ccc(OCc4ccccc4)c(Cl)c3)c(C#N)cnc2cc1OC1CCOC1 (stereo not drawn) [Example 12, (E)-N-(4-(4-(BENZYLOXY)-3-CHLOROPHENYLAMINO)-3-CYANO-7-(TETRAHYDROFURAN-3-YL-OXY)QUINOLIN-6-YL)-4-(DIMETHYLAMINO)-BUT-2-ENAMIDE]	8	–	2000	–	–
CN(C)C/C=C/C(=O)Nc1cc2c(Nc3ccc(OCc4ccccc4C#N)c(Cl)c3)c(C#N)cnc2cc1OC1CCOC1 (stereo not drawn) [Example 13, (E)-N-(4-(4-(2-CYANOBENZYLOXY)-3-CHLOROPHENYLAMINO)-3-CYANO-7-(TETRAHYDROFURAN-3-YL-OXY)QUINOLIN-6-YL)-4-(DIMETHYLAMINO)-BUT-2-ENAMIDE]	11	–	2000	–	75
CN(C)C/C=C/C(=O)Nc1cc2c(Nc3ccc(OCc4cccc(C#N)c4)c(Cl)c3)c(C#N)cnc2cc1OC1CCOC1 (stereo not drawn) [Example 15, (E)-N-(4-(4-(3-CYANOBENZYLOXY)-3-CHLOROPHENYLAMINO)-3-CYANO-7-(TETRAHYDROFURAN-3-YL-OXY)QUINOLIN-6-YL)-4-(DIMETHYLAMINO)-BUT-2-ENAMIDE]	8.1	–	2200	–	71
CN(C)C/C=C/C(=O)Nc1cc2c(Nc3ccc(OCc4ccc(Cl)cc4)c(Cl)c3)c(C#N)cnc2cc1OC1CCOC1 (stereo not drawn) [Example 16, (E)-N-(4-(4-(4-CHLOROBENZYLOXY)-3-CHLOROPHENYLAMINO)-3-CYANO-7-(TETRAHYDROFURAN-3-YL-OXY)QUINOLIN-6-YL)-4-(DIMETHYLAMINO)-BUT-2-ENAMIDE]	35	–	1800	36	72
Cc1ccccc1COc1ccc(Nc2c(C#N)cnc3cc(OC4CCOC4)c(NC(=O)/C=C/CN(C)C)cc23)cc1Cl (stereo not drawn) [Example 17, (E)-N-(4-(4-(2-METHYLBENZYLOXY)-3-CHLOROPHENYLAMINO)-3-CYANO-7-(TETRAHYDROFURAN-3-YL-OXY)QUINOLIN-6-YL)-4-(DIMETHYLAMINO)-BUT-2-ENAMIDE]	17	–	2000	7	–
Cc1ccc(COc2ccc(Nc3c(C#N)cnc4cc(OC5CCOC5)c(NC(=O)/C=C/CN(C)C)cc34)cc2Cl)cc1 (stereo not drawn) [Example 19, (E)-N-(4-(4-(4-METHYLBENZYLOXY)-3-CHLOROPHENYLAMINO)-3-CYANO-7-(TETRAHYDROFURAN-3-YL-OXY)QUINOLIN-6-YL)-4-(DIMETHYLAMINO)-BUT-2-ENAMIDE]	32	–	2000	63	–
C#Cc1cccc(Nc2c(C#N)cnc3cc(O[C@H]4CCOC4)c(NC(=O)/C=C/CN4CCOCC4)cc23)c1 [Example 145, (S,E)-N-(3-CYANO-4-(3-ETHYNYLPHENYLAMINO)-7-(TETRAHYDROFURAN-3-YL-OXY)QUINOLIN-6-YL)-4-(MORPHOLIN-4-YL)-BUT-2-ENAMIDE]	654	–	–	831	75
C#Cc1cccc(Nc2c(C#N)cnc3cc(O[C@H]4CCOC4)c(NC(=O)/C=C/CNC(C)(C)C)cc23)c1 [Example 146, (S,E)-N-(3-CYANO-4-(3-ETHYNYLPHENYLAMINO)-7-(TETRAHYDROFURAN-3-YL-OXY)QUINOLIN-6-YL)-4-(TERT-BUTYLAIMINO)-BUT-2-ENAMIDE]	236	–	–	823	–
